One test has as its target T1, pancreatic lipase (PL) (Sus scrofa, UniProt P00591).
T1 construct: purchased Sigma-Aldrich
T1 sequence (P00591 1-450): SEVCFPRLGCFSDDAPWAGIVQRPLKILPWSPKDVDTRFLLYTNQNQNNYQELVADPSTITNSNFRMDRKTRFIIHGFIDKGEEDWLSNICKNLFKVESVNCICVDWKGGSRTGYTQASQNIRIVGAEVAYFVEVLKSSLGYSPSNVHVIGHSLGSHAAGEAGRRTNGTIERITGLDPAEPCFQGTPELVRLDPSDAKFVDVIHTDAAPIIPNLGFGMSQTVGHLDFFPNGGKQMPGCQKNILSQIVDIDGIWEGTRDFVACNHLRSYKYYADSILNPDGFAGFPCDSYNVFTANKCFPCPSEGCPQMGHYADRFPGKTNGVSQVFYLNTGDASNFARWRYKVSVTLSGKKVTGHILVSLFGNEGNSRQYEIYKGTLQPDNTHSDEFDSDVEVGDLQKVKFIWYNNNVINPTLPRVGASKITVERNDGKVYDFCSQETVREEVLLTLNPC
Nature of the test: Inhibition of PL, MUF oleate hydrolysis. The class given is biochemical. The conditions noted are these: mean values of at least 2 independent tests. From the text:
(§1) Lipogenesis is perceived as the storage of triglycerides in adipocytes. The inhibition of this storage can take place by means of the inhibition of the activity of extracellular lipoprotein lipase (LPL) in that the hydrolysis of extracellular triglycerides and therefore the absorption of free fatty acids by adipocytes are reduced. As a preliminary test, the inhibition of pancreatic lipase (PL) is investigated.
PL (Sigma-Aldrich), in the presence of test substances in different use concentrations has methylumbelliferyl oleate (MUF oleate) added as a substrate. Fluorescent methylumelliferon (MUF), is produced by hydrolysis of the MUF oleate by PL and is quantified. The inhibition of the hydrolysis of the MUF oleate is a measure of the inhibition of activity of the PL.
[formula] wherein MUF test substance=MUF concentration of the wells with test substance and with PL MUF control=MUF concentration of the wells without test substance, but with PL MUF control without PL=MUF concentration of the wells without test substance and without PL
The IC50 is calculated from the inhibition of the PL [%] in a series of dilutions of tested samples. This is the concentration, at which the activity of the PL is 50% inhibited.

The target in the next test is T2, lipoprotein lipase (LPL) (Mus musculus, UniProt P11152).
T2 construct: endogenous in cells; host or cells: differentiated 3T3-L1 cells (mouse); heparin-released supernatant
T2 sequence (P11152 28-474): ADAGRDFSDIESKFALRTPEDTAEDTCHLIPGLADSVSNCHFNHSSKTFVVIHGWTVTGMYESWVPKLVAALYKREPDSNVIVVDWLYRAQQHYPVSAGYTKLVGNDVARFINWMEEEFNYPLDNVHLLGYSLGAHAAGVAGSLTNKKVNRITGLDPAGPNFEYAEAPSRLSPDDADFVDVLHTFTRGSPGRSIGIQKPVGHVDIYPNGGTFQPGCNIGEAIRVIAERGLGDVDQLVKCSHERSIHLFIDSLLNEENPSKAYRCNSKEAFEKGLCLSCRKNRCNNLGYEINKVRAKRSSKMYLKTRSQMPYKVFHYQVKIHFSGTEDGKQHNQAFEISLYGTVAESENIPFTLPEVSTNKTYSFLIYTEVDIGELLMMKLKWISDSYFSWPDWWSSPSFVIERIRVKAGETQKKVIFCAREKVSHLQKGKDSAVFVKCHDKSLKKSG
The experiment in a line: Inhibition of LPL (lipogenesis assay), MUF oleate hydrolysis. Format: biochemical. The conditions noted are these: LPL obtained from differentiated 3T3-L1 cells; mean values of at least 2 independent tests.
From the text: as §1
The results of the inhibition of the PL are used as a preliminary test and are confirmed on LPL. To obtain LPL, 3T3-L1 cells (mouse embryonic fibroblast-like adipocyte cell line) are seeded in a 6-well plate with collagen I-coating in a concentration of 3×10^5 cells/well. The cultivation and differentiation of the cells takes place analogously to the details in Example 2 (adipogenesis assay). During the differentiation LPL is increasingly expressed. The LPL is present in a membrane-bound state and is released by one hour incubation with heparin solution at 2-8° C. to the supernatant of the cells.
The LPL thus obtained, in the presence of test substances in different use concentrations, has methylumbelliferyl oleate (MUF oleate) added as the substrate. Fluorescent methylumbelliferyl (MUF) is produced by hydrolysis of the MUF oleate by LPL and is quantified. The inhibition of the hydrolysis of the MUF oleate is a measure of the inhibition of the activity of the LPL and therefore the lipogenesis.
[formula] wherein MUF test substance=MUF concentration of the wells with test substance and with LPL MUF control=MUF concentration of the wells without test substance, but with LPL MUF control without LPL=MUF concentration of the wells without test substance and without LPL
The IC50 is calculated from the inhibition of the LPL [%] in a series of dilutions of tested samples. This is the concentration at which the activity of the LPL and therefore the lipogenesis is 50% inhibited.

The subject of a further test is 3T3-L1 cells. The experiment in a line: Lipolysis assay, in vitro on 3T3-L1 cells, free glycerol release. The class given is cell-based. The conditions noted are these: Mus musculus; differentiated 3T3-L1 cells, about 20 hours of incubation; mean values from at least 2 independent tests; read-out: Stimulation of lipolysis EC50. The protocol: 3T3-L1 cells (mouse embryonic fibroblast-like adipocyte cell line) are seeded in a 48-well plate with collagen I-coating in a concentration of 3×10^4 cells/well. The cultivation and differentiation of the cells takes place analogously to the details in Example 2 (adipogenesis assay).
Various concentrations of the test substances are applied to the cells in DMEM, with bovine serum albumen added. After about 20 hours of incubation, the quantification of free glycerol in the supernatant of the cells takes place, which is released by the cells after hydrolysis of triglycerides in the cells and is a measure of the lipolysis of the cells. The quantification of the free glycerol is carried out based on an enzymatic method with a free glycerol reagent.
The stimulation of the lipolysis in the presence of test substances is calculated according to the following equation:
[formula] wherein A test substance=absorption of the wells with test substance and with cells A test substance without cells=absorption of the wells with test substance without cells (absorption control) A control=absorption of the wells without test substance, but with cells A control without cells=absorption of the wells without test substance and without cells
The EC50 is calculated from the lipolysis stimulation [%] in a series of dilutions of tested samples. This is the concentration at which the lipolysis is 50% stimulated.

As usually defined, the IC50 is the midpoint of a concentration-inhibition curve. Read a low IC50 as greater potency in that assay. As a reminder, the EC50 is the midpoint of the concentration-response curve.

As to `CCCCNC(=O)OC1C(C)CCC(C)C1C` (stereo not drawn) [BIO1617, Butyl-carbamic acid 2,3,6-trimethyl-cyclohexyl ester], the half-maximal inhibitory concentration (IC50) was determined as 1380 µM on pancreatic lipase (PL) and 610 µM against lipoprotein lipase (LPL). The EC50 with 3T3-L1 cells stood at 980 µM.

As for `CCCCNC(=O)OC1CCCCC1C(C)C` (stereo not drawn) [BIO1841, Butyl-carbamic acid 2-isopropyl-cyclohexyl ester], the IC50 against pancreatic lipase (PL) amounted to 780 µM; against lipoprotein lipase (LPL), 1200 µM. The EC50 in the test with 3T3-L1 cells is 230 µM.

`CCC(C)NC(=O)OC1CCCC(C)C1C` (stereo not drawn) [BIO1845, sec-Butyl-carbamic acid 2,3-dimethyl-cyclohexyl ester]: the concentration for half-maximal inhibition (IC50) against pancreatic lipase (PL) turned out to be 720 µM; against lipoprotein lipase (LPL), 1440 µM. The EC50 with 3T3-L1 cells turned out to be 190 µM.

These data come from US9012497B2, “Cyclohexyl carbamate compounds as active anti-cellulite ingredients” (Symrise AG, priority 2010, dated 2015).
